What was measured:
[1] = target: Histone-lysine N-methyltransferase SETDB1 (Homo sapiens) (UniProt Q15047); settings: at 1 µM
[2] = target: T1, Serine/threonine-protein kinase NLK (Homo sapiens) (UniProt Q9UBE8); assay: Selectivity interaction (KinomeScan (DiscoverX)) EUB0001079a NLK; settings: at 1 µM
T1 sequence (whole entry): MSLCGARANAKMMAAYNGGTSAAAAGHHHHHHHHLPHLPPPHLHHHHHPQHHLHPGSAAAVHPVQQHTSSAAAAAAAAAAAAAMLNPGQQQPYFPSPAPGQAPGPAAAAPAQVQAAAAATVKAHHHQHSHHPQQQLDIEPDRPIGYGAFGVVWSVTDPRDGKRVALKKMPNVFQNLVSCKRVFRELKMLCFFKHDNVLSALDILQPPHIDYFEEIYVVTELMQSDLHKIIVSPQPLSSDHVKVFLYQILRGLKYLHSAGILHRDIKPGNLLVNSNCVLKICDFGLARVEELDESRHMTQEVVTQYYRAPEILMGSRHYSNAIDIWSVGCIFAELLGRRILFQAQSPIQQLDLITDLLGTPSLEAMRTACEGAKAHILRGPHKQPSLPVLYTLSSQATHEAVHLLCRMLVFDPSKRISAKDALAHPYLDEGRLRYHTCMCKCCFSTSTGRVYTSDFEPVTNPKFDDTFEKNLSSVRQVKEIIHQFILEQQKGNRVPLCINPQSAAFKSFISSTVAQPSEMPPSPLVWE

[3] = target: Tyrosine-protein kinase SYK (Homo sapiens, UniProt P43405); assay: Selectivity interaction (ActivX KiNativ screen (kinase selectivity in THP-1 cell lysates)) EUB0000639a SYK; format: subcellular; settings: lysate
[4] = target: High affinity nerve growth factor receptor (Homo sapiens, UniProt P04629); assay: Selectivity interaction (KinomeScan (DiscoverX)) EUB0000092b NTRK1; settings: at 10 µM
[5] = target: Protein arginine N-methyltransferase 3 (Homo sapiens, UniProt O60678); assay: Selectivity interaction (Methyltransferase screen (Scintillation proximity assays)) EUB0000255b PRMT3
[6] = target: T2, Mitogen-activated protein kinase kinase kinase kinase 2 (Homo sapiens) (UniProt Q12851); assay: Selectivity interaction (KinomeScan (DiscoverX)) EUB0000618a MAP4K2; settings: at 10 µM
T2 sequence (whole entry): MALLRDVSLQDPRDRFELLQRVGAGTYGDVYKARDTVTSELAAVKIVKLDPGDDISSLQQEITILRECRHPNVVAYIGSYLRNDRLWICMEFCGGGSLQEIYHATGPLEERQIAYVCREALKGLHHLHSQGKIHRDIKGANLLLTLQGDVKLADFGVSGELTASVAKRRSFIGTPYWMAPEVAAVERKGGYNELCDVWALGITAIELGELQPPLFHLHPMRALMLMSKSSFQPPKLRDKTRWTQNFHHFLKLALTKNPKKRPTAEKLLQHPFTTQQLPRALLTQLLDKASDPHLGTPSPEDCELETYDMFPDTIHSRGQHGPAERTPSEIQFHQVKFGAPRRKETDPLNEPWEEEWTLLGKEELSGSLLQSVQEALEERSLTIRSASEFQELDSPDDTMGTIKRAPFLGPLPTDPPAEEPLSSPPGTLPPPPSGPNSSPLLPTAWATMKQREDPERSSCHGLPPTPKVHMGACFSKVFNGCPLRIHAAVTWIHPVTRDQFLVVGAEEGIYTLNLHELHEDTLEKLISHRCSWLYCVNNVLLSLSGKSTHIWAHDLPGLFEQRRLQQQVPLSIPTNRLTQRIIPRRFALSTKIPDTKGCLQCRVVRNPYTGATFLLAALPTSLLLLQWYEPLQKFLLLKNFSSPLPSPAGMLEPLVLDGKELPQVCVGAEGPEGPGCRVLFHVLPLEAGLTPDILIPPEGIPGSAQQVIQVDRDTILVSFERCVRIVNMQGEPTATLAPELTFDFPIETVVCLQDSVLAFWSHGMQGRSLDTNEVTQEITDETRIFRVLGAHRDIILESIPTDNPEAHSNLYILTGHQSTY

[7] = target: T3, Inhibitor of nuclear factor kappa-B kinase subunit beta (Homo sapiens) (UniProt O14920); assay: Selectivity interaction (KinomeScan (DiscoverX)) EUB0001619a IKBKB; settings: at 1 µM
T3 sequence (whole entry): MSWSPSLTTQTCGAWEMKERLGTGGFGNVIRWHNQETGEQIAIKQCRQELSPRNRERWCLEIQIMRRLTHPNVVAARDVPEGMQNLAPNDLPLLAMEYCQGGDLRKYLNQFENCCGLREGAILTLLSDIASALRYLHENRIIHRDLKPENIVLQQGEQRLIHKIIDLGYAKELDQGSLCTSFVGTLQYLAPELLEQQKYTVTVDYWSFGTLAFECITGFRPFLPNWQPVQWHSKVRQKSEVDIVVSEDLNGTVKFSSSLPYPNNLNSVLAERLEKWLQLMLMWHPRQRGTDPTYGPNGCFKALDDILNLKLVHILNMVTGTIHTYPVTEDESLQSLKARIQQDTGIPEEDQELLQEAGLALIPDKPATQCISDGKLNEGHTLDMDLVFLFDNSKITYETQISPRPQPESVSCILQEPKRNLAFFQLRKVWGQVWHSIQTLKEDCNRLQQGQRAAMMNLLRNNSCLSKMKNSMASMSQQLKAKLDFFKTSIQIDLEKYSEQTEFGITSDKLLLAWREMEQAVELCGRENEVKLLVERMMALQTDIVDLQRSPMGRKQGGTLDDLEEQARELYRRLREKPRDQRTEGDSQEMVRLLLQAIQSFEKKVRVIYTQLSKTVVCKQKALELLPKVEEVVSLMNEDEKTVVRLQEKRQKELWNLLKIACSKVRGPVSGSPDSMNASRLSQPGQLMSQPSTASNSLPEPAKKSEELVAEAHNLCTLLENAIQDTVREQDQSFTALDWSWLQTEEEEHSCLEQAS

[8] = target: Casein kinase I isoform gamma-1 (Homo sapiens) (UniProt Q9HCP0); assay: Selectivity interaction (KinomeScan (DiscoverX)) EUB0000607a CSNK1G1; settings: at 10 µM
Sequence of Casein kinase I isoform gamma-1 (Homo sapiens) (Q9HCP0 whole entry, looked up, canonical isoform): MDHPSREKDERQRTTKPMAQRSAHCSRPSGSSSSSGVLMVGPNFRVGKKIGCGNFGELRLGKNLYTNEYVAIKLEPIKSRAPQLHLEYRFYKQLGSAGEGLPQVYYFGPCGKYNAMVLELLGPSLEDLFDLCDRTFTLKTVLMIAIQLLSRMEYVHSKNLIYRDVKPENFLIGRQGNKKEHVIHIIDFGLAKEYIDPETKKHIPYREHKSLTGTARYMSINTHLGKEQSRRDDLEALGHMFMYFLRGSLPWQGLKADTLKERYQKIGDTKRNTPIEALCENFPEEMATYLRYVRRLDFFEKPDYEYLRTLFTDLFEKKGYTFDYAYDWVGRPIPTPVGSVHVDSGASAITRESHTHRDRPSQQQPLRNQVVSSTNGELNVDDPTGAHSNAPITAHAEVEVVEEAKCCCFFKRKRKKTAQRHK

Sequence of Protein arginine N-methyltransferase 3 (O60678 2-531 limits assumed): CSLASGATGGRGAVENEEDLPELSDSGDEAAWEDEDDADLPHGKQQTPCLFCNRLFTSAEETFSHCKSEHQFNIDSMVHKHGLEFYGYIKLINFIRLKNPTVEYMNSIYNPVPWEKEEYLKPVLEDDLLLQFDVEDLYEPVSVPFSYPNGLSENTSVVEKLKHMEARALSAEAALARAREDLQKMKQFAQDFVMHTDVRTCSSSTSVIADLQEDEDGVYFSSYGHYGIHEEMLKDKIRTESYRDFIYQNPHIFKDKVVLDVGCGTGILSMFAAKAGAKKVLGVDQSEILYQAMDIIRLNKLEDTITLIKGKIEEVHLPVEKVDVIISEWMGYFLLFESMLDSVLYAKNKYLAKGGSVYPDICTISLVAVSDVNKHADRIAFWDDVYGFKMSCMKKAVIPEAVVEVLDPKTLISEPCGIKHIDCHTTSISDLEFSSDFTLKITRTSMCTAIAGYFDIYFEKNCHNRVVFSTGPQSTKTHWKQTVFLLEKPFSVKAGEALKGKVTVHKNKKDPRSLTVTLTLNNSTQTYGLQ
Sequence of High affinity nerve growth factor receptor (P04629 33-796 limits assumed): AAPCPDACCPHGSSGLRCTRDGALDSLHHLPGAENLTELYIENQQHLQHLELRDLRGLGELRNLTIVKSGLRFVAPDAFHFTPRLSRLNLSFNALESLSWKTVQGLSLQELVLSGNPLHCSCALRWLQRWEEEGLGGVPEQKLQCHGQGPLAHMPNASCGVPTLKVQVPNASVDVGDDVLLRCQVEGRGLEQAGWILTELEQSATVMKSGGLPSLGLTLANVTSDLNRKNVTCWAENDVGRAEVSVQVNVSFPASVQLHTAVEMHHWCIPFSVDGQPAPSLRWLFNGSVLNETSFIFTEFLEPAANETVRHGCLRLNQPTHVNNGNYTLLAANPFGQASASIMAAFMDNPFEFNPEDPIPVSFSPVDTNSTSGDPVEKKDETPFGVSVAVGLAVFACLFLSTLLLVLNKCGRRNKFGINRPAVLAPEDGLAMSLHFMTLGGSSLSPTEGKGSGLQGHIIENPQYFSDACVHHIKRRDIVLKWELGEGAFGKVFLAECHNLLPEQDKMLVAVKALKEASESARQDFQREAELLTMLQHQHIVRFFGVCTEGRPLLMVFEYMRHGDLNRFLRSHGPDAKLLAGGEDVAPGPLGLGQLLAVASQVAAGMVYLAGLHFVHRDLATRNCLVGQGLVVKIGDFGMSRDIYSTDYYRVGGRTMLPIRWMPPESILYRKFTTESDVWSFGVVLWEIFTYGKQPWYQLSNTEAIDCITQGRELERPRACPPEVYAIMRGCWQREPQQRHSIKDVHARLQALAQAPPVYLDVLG

How did the % activity [1] turn out when `CNCCN1CCC(c2cc(CN(C)C(=O)c3cccc(Oc4ccccc4)c3)ccn2)CC1` was run?
The % activity was > 90%.

Which % of control [2] does the source give for `Nc1cnc(N2CCc3cc(S(=O)(=O)Nc4c(F)cc(Cl)cc4F)cc(N4CCCC4=O)c32)nc1` [TP-020n] here?
Its % of control is 100%.

What does the source list for `CC[C@@H]1[C@H](F)C(=O)N[C@@H]1COc1nccc2cc(C(N)=O)c(OC)cc12` [ZIMLOVISERTIB]?
% of inhibition ([3]; at 0.01 µM): 3.2%; % of inhibition ([3]; at 0.04 µM): 14.7%; % of inhibition ([3]; at 0.2 µM): 7.1%; % of inhibition ([3]; at 1 µM): 16.1%; % of inhibition ([3]; at 5 µM): 2.5%

How did the % of control [4] turn out when `CCC(=O)N1CCN(c2ccc(-n3c(=O)ccc4cnc5ccc(-c6cnc7ccccc7c6)cc5c43)cc2C(F)(F)F)CC1` was run?
Its % of control is 64%.

How did the % activity ([5]; at 1 µM) turn out when `COCCN1CCC(c2cc(CN(C)C(=O)c3cccc(Oc4ccccc4)c3)ccn2)CC1` was run?
Its % activity is > 95%.

What about the % activity ([5]; at 10 µM) of the same molecule?
The % activity was > 90%.

Which % of control [6] does the source give for `O[C@H]1CC[C@H](Nc2ncc3nc(Nc4c(F)cc(F)cc4F)n([C@H]4CCOC4)c3n2)CC1` here?
Its % of control is 91%.

For `N#Cc1cccc(-c2c[nH]c3ncnc(N4CCOCC4)c23)c1`, which % of control [7] is on record?
The % of control was 90%.

For `CNC(=O)Nc1ccc(-c2nc(N3CC4CCC(C3)O4)c3cnn(C4CCC5(CC4)OCCO5)c3n2)cc1`, which % of control [8] is on record?
The % of control was 54%.
